Measurements as given in ChEMBL document CHEMBL4725370, “Discovery of Proteolysis-Targeting Chimera Molecules that Selectively Degrade the IRAK3 Pseudokinase” (J Med Chem, 2020).

How the values were obtained:
[1] = biological target: T1, von Hippel-Lindau disease tumor suppressor/Interleukin-1 receptor-associated kinase 3 (Homo sapiens) (UniProt Q9Y616+P40337); assay: Protac activity at VHL/IRAK3 in LPS-induced human THP1 cells assessed as induction of IRAK3 degradation at 1 uM by Western blot analysis relative to control; format: cell-based; settings: THP-1
[2] = Octanol/buffer partition coefficient, log D of the compound at pH 7.4 by shake-flask method; format: physicochemical
[3] = biological target: T2, Interleukin-1 receptor-associated kinase 3 (Homo sapiens, UniProt Q9Y616); assay: Inhibition of kinase tracer 236 binding to recombinant human full-length GST-tagged IRAK3 expressed in insect cells by Lanthascreen Eu kinase binding assay
T2 sequence (Q9Y616 whole entry): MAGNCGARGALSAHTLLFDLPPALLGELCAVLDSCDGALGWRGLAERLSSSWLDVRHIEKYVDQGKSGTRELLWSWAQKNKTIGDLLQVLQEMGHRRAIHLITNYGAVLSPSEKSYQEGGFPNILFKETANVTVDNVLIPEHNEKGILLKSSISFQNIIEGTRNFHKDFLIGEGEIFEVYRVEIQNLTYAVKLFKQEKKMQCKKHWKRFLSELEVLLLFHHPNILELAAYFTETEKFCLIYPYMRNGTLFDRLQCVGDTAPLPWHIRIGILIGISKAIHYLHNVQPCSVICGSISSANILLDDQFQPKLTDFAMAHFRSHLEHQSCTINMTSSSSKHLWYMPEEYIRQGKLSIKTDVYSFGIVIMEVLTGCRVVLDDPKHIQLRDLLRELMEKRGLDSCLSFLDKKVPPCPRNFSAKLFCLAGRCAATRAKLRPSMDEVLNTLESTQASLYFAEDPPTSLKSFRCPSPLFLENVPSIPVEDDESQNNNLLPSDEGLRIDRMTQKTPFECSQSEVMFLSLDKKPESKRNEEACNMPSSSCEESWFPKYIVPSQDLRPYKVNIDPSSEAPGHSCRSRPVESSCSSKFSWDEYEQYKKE

[4] = biological target: T3, Interleukin-1 receptor-associated kinase 4 (Homo sapiens, UniProt Q9NWZ3); assay: Inhibition of recombinant human full-length His-tagged IRAK4 expressed in baculovirus expression system using 5-FAM-IPTSPITTTYFFFKKK-COOH as substrate measured after 240 mins by mobility shift assay
T3 sequence (Q9NWZ3 whole entry): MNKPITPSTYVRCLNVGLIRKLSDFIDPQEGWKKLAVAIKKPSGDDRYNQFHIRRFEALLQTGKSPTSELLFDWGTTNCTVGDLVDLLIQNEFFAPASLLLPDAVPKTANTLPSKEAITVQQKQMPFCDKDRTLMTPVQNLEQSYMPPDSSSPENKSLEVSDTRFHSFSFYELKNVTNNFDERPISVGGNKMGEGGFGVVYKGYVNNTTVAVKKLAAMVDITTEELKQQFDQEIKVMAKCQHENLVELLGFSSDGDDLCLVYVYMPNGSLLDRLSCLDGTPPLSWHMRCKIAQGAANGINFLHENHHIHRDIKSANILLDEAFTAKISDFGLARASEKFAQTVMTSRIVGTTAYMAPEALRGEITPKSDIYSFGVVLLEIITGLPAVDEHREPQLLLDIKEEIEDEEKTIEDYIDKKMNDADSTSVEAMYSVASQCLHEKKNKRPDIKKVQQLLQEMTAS

[5] = biological target: T1, von Hippel-Lindau disease tumor suppressor/Interleukin-1 receptor-associated kinase 3 (Homo sapiens); assay: Protac activity at VHL/IRAK3 in LPS-induced human THP1 cells assessed as induction of IRAK3 degradation at 10 uM by Western blot analysis relative to control; format: cell-based; settings: THP-1
[6] = biological target: T4, Protein cereblon/Interleukin-1 receptor-associated kinase 3 (Homo sapiens, UniProt Q9Y616+Q96SW2); assay: Protac activity at CRBN/IRAK3 in LPS-induced human THP1 cells assessed as induction of IRAK3 degradation at 1 uM by Western blot analysis relative to control; format: cell-based; settings: THP-1
Target sequence in this assay (Q96SW2 whole entry, looked up, one chain of several): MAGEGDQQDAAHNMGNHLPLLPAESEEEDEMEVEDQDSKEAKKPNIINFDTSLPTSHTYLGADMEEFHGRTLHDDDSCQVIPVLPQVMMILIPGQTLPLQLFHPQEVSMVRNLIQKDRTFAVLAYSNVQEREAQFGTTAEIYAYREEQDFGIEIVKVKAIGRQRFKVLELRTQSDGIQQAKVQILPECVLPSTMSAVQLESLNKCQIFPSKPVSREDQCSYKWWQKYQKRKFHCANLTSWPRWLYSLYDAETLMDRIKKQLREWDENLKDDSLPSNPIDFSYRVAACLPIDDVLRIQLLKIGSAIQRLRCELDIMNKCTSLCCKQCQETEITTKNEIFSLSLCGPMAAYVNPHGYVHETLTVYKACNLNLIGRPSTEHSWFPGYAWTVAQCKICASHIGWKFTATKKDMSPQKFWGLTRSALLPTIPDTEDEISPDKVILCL

[7] = biological target: T4, Protein cereblon/Interleukin-1 receptor-associated kinase 3; assay: Protac activity at CRBN/IRAK3 in LPS-induced human THP1 cells assessed as induction of IRAK3 degradation at 10 uM by Western blot analysis relative to control; format: cell-based; settings: THP-1
Target sequence in this assay (Q96SW2 whole entry, looked up, one chain of several): as above

[8] = biological target: Interleukin-1 receptor-associated kinase 1 (Homo sapiens, UniProt P51617); assay: Inhibition of recombinant human N-terminal GST-tagged IRAK1 (194 to 712 residues) expressed in baculovirus expression system using 5-FAM-KKKVSRSGLYRSPSMPENLNRPR-COOH as substrate measured after 240 mins by mobility shift assay
Protein cereblon = Protein cereblon (Homo sapiens, UniProt Q96SW2); assay: Inhibition of CRBN (unknown origin)
[9] = biological target: T4, Protein cereblon/Interleukin-1 receptor-associated kinase 3; assay: Protac activity at CRBN/IRAK3 in LPS-induced human THP1 cells assessed as induction of IRAK3 degradation after 16 hrs by Western blot analysis; format: cell-based; settings: thp-1
Target sequence in this assay (Q96SW2 whole entry, one chain of several): as the sequence (Q96SW2 whole entry, looked up, one chain of several) above

[10] = biological target: T4, Protein cereblon/Interleukin-1 receptor-associated kinase 3; assay: Protac activity at CRBN/IRAK3 in LPS-induced human THP1 cells assessed as induction of IRAK3 degradation after 16 hrs by Western blot analysis relative to control; format: cell-based; settings: THP-1
Target sequence in this assay (Q96SW2 whole entry, looked up, one chain of several): as the sequence (Q96SW2 whole entry, looked up, one chain of several) above

T1 sequence (P40337 whole entry, looked up, one chain of several): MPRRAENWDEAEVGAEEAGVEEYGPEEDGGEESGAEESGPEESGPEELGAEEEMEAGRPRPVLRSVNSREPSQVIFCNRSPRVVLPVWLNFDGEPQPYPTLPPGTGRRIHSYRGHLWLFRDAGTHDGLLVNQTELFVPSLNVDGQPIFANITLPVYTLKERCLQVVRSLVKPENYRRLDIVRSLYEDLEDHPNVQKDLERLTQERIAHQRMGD
Protein cereblon, sequence (Q96SW2 whole entry): as the sequence (Q96SW2 whole entry, looked up, one chain of several) above
Interleukin-1 receptor-associated kinase 1, sequence (P51617 whole entry, the tested form may be a part): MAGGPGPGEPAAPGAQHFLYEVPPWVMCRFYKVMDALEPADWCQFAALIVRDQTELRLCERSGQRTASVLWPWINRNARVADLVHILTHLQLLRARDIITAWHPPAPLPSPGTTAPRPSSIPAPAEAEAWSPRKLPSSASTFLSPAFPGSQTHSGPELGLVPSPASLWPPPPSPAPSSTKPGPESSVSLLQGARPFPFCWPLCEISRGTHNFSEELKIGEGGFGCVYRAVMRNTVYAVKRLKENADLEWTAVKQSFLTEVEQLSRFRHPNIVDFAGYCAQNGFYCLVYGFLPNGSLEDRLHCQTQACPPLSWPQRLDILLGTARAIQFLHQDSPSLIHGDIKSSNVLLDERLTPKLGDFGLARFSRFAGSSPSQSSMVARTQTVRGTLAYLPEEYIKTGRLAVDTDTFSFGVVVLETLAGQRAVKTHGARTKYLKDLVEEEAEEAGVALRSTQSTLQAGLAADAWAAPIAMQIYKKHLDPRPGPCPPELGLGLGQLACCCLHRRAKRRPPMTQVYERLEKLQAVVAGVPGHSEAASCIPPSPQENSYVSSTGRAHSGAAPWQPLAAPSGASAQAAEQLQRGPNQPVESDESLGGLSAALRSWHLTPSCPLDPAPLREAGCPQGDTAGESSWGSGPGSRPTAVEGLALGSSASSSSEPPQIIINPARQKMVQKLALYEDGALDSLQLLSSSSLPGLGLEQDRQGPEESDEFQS

Activity [1]	logD [2]	IC50 [3]	IC50 [4]	Activity [5]	Activity [6]	Activity [7]	IC50 [8]	IC50 (Protein cereblon)	DC50 [9]	Emax [10]	SMILES
25%	3.2	21 nM	> 10000 nM	62%	–	–	–	–	–	–	Cc1ncsc1-c1ccc(CNC(=O)[C@@H]2C[C@@H](O)CN2C(=O)[C@@H](NC(=O)COCCOCCOCCOCC(=O)N2CCN([C@H]3CC[C@@H](Nc4ncnn5ccc(C(C)C)c45)CC3)CC2)C(C)(C)C)cc1
–	2	22 nM	> 1000 nM	–	85%	55%	–	–	–	–	CC(C)c1ccn2ncnc(N[C@H]3CC[C@@H](N4CCN(C(=O)CCC(=O)NCCOCCOCCOCCOCCNc5cccc6c5C(=O)N(C5CCC(=O)NC5=O)C6=O)CC4)CC3)c12 (stereo partly specified)
–	2.9	13 nM	> 1000 nM	–	0%	0%	–	–	–	–	CC(C)c1ccn2ncnc(N[C@H]3CC[C@@H](N4CCN(C(=O)CCC(=O)NCCCCNc5cccc6c5C(=O)N(C5CCC(=O)NC5=O)C6=O)CC4)CC3)c12 (stereo partly specified)
0%	3.7	15 nM	> 1000 nM	0%	–	–	–	–	–	–	Cc1ncsc1-c1ccc(CNC(=O)[C@@H]2C[C@@H](O)CN2C(=O)[C@@H](NC(=O)CCCNC(=O)CCC(=O)N2CCN([C@H]3CC[C@@H](Nc4ncnn5ccc(C(C)C)c45)CC3)CC2)C(C)(C)C)cc1
21%	–	51 nM	–	67%	–	–	–	–	–	–	Cc1ncsc1-c1ccc(CNC(=O)[C@@H]2C[C@@H](O)CN2C(=O)[C@@H](NC(=O)COCCOCCOCCOCCOCC(=O)N2CCN([C@H]3CC[C@@H](Nc4ncnn5ccc(C(C)C)c45)CC3)CC2)C(C)(C)C)cc1
–	2.1	33 nM	> 10000 nM	–	78%	49%	–	–	–	–	CC(C)c1ccn2ncnc(N[C@H]3CC[C@@H](N4CCN(C(=O)CCOCCOCCOCCOCCOCCNc5cccc6c5C(=O)N(C5CCC(=O)NC5=O)C6=O)CC4)CC3)c12 (stereo partly specified)
0%	3.1	25 nM	> 1000 nM	0%	–	–	–	–	–	–	Cc1ncsc1-c1ccc(CNC(=O)[C@@H]2C[C@@H](O)CN2C(=O)[C@@H](NC(=O)COCCOCCOCCNC(=O)CCC(=O)N2CCN([C@H]3CC[C@@H](Nc4ncnn5ccc(C(C)C)c45)CC3)CC2)C(C)(C)C)cc1
0%	> 3	6 nM	> 1000 nM	0%	–	–	–	–	–	–	Cc1ncsc1-c1ccc(CNC(=O)[C@@H]2C[C@@H](O)CN2C(=O)[C@@H](NC(=O)CCCCCCNC(=O)CCC(=O)N2CCN([C@H]3CC[C@@H](Nc4ncnn5ccc(C(C)C)c45)CC3)CC2)C(C)(C)C)cc1
–	2.3	34 nM	7800 nM	–	24%	21%	–	–	–	–	CC(C)c1ccn2ncnc(N[C@H]3CC[C@@H](N4CCN(C(=O)CCOCCOCCOCCNc5cccc6c5C(=O)N(C5CCC(=O)NC5=O)C6=O)CC4)CC3)c12 (stereo partly specified)
–	3.7	21 nM	2600 nM	–	0%	0%	–	–	–	–	CC(C)c1ccn2ncnc(N[C@H]3CC[C@@H](N4CCN(C(=O)CCC(=O)NCCCCCCNc5cccc6c5C(=O)N(C5CCC(=O)NC5=O)C6=O)CC4)CC3)c12 (stereo partly specified)
–	2.1	21 nM	> 1000 nM	–	42%	34%	–	–	–	–	CC(C)c1ccn2ncnc(N[C@H]3CC[C@@H](N4CCN(C(=O)CCC(=O)NCCOCCOCCOCCNc5cccc6c5C(=O)N(C5CCC(=O)NC5=O)C6=O)CC4)CC3)c12 (stereo partly specified)
–	2.3	10 nM	4900 nM	–	17%	13%	–	–	–	–	CC(C)c1ccn2ncnc(N[C@H]3CC[C@@H](N4CCN(C(=O)CCC(=O)NCCOCCOCCNc5cccc6c5C(=O)N(C5CCC(=O)NC5=O)C6=O)CC4)CC3)c12 (stereo partly specified)
20%	2.8	33 nM	> 10000 nM	43%	–	–	–	–	–	–	Cc1ncsc1-c1ccc(CNC(=O)[C@@H]2C[C@@H](O)CN2C(=O)[C@@H](NC(=O)COCCOCCOCCOCCOCCOCC(=O)N2CCN([C@H]3CC[C@@H](Nc4ncnn5ccc(C(C)C)c45)CC3)CC2)C(C)(C)C)cc1
0%	3	19 nM	> 1000 nM	0%	–	–	–	–	–	–	Cc1ncsc1-c1ccc(CNC(=O)[C@@H]2C[C@@H](O)CN2C(=O)[C@@H](NC(=O)COCCOCCOCCOCCNC(=O)CCC(=O)N2CCN([C@H]3CC[C@@H](Nc4ncnn5ccc(C(C)C)c45)CC3)CC2)C(C)(C)C)cc1
0%	3.3	24 nM	> 10000 nM	20%	–	–	–	–	–	–	Cc1ncsc1-c1ccc(CNC(=O)[C@@H]2C[C@@H](O)CN2C(=O)[C@@H](NC(=O)COCCOCCNC(=O)CCC(=O)N2CCN([C@H]3CC[C@@H](Nc4ncnn5ccc(C(C)C)c45)CC3)CC2)C(C)(C)C)cc1
–	–	31 nM	–	–	–	–	–	–	–	–	CC(=O)N1CCN([C@H]2CC[C@H](Nc3ncnn4ccc(C(C)C)c34)CC2)CC1
–	2.2	50 nM	> 10000 nM	–	48%	27%	–	–	–	–	CC(C)c1ccn2ncnc(N[C@H]3CC[C@@H](N4CCN(C(=O)CCOCCOCCOCCOCCNc5cccc6c5C(=O)N(C5CCC(=O)NC5=O)C6=O)CC4)CC3)c12 (stereo partly specified)
–	3.1	6 nM	5600 nM	–	–	–	5600 nM	1200 nM	52 nM	74%	CC(C)c1ccn2ncnc(N[C@H]3CC[C@@H](N4CCN(C(=O)CCC(=O)N5CCC(CN6CCN(c7ccc8c(c7)C(=O)N(C7CCC(=O)NC7=O)C8=O)CC6)CC5)CC4)CC3)c12 (stereo partly specified)
